Values quoted from earlier work, collected in article PMC9069326 (RSC Advances, 2019).

Biological target: Gal-3 (Homo sapiens, UniProt P17931)
Conditions: cited from earlier work

Sequence of Gal-3 (P17931 whole entry, species assumed): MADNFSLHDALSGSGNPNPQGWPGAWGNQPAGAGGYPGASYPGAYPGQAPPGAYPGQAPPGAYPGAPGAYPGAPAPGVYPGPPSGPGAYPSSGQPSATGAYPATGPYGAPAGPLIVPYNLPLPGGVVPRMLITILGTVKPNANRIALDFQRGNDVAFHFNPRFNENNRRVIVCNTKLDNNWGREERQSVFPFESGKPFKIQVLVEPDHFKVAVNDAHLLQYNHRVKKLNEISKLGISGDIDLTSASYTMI

For `O=C[C@H](O)[C@@H](O)[C@@H](O)[C@H](O)CO` [Gal, β-Galactose], the Kd is given as about 10 mM.
For Galβ1-4GlcNAc [LacNAc], the Kd is given as 0.07 mM.
